Data as given in patent publication US20240358693A1, “METHODS OF TREATING PAIN” (Aisa Pharma, Inc., priority 2023, published 2024).

Assays:
Format in all cases: in vitro ADME
[1] = In vitro equilibrium dialysis (RED) protein binding, rat plasma; conditions: male, Sprague-Dawley, pH 7.4
Procedure: (§1) Cilnidipine was tested by PsychoGenics using standard methodology in 96-well RED (Rapid Equilibrium Dialysis) plates from Thermo Fisher Scientific. Male Sprague-Dawley plasma and brain were obtained from BioIVT to provide the required protein matrix. Plasma was used undiluted, and brain homogenate was diluted 3 to 1 with PBS, pH 7.4. The protein matrix was spiked with the test compound dissolved in DMSO to achieve a 10 μM solution. Three chambers were used to allow for triplicate measures with a final DMSO concentration of <1% in each. The dialysate compartments of the 96-well dialysis chamber was loaded with PBS, pH 7.4 and the sample side was loaded with equal volume of the spiked protein matrix. The dialysis plate was then sealed and incubated at 37° C. for 4 h. After the incubation, samples were taken from each compartment. The buffer side was diluted with the appropriate matrix (plasma or brain homogenate) and the protein matrix side diluted with phosphate buffer. Resultant samples were then crashed in acetonitrile, centrifuged and the supernatant mixed with an aqueous solution providing samples for UPLC-MS/MS analysis. […] This control sample served as the basis for the determination of recovery. […] Samples were analyzed by UPLC-MS/MS using […] (MRM). The UPLC conditions consisted of a binary LC pump with autosampler, an InertSustain column (C18 column, 2.1×50 mm), utilizing gradient elution. The peak areas of the test compound in the buffer and test samples were used to calculate percent binding and recovery according to the following formulas: […]
(§2) The recovery determination serves as an indicator of reliability of the calculated protein binding value.
(§3) The characterization of protein binding is defined using the following ranges:
(§4) • Low 0 to 50% • Moderate 50 to 90% • High 90 to 99% • Very High>99%

[2] = In vitro equilibrium dialysis (RED) protein binding, rat brain homogenate; conditions: male, Sprague-Dawley, rat, pH 7.4
Procedure: as §1, §2, §3, §4

rat plasma proteins = experiment: In vitro equilibrium dialysis (RED) protein binding, rat plasma; conditions: male, Sprague-Dawley, plasma, 4 h, 10 μM, pH 7.4
Procedure: as §1, §2, §3, §4

[3] = tested on: rat brain homogenate proteins; experiment: In vitro equilibrium dialysis (RED) protein binding, rat brain homogenate; conditions: male, Sprague-Dawley, rat, brain homogenate, 4 h, 10 μM, pH 7.4
Procedure: as §1, §2, §3, §4

C=C[C@H]1C[N@@]2CC[C@H]1C[C@@H]2[C@@H](O)c1ccnc2ccc(OC)cc12 [quinidine]
recovery at 4 h, 10 μM [1]: 93.7 ± 3.89% | recovery at 4 h, 10 μM [2]: 125 ± 1.54%

CC(=O)CC(c1ccccc1)c1c(O)c2ccccc2oc1=O (centres unmarked) [warfarin]
recovery at 4 h, 10 μM [1]: 112.7 ± 0.76% | fraction unbound at 4 h, 10 μM ([1]; plasma): 0.008 | Unbound (%) (rat plasma proteins): 0.8 ± 0.02% | fraction unbound at 4 h, 10 μM ([2]; brain homogenate): 0.827 | recovery at 4 h, 10 μM [2]: 132 ± 0.57% | Unbound (%) [3]: 82.7 ± 4.98%
